Experiments:
Assay type in all cases: cell-based, human
[1] = system: normal immune cells (PBMCs); test: Background NK cell activity in PBMCs without tumor targets
Method: ADCC was measured in a flow cytometry assay by evaluating degranulation via CD107a (lysosomal-associated membrane protein LAMP-1) and intracellular IFNγ production. Upon thawing, normal donor and patient-derived PBMCs or ascites cells were rested overnight (37° C., 5% CO2) in RPMI 1640 media supplemented with 10% fetal calf serum (RPMI-10). The next morning, they were suspended with tumor-target cells or media after washing twice with RPMI-10. Cells were then incubated with TriKEs or controls for 10 min at 37° C. Fluorescein isothiocyate (FITC)-conjugated anti-human CD107a monoclonal antibody (BD Biosciences, San Jose, CA, USA) was then added. […] Samples were washed and evaluated in an LSRII flow cytometer (BD Biosciences, San Jose, CA, USA).
The ability of cam1615B7-H3 TriKE to mediate NK cell activity against ovarian cancer cells was evaluated. […] In order to determine if the individual components of the TriKE could induce NK cell activity on their own, the individual cam16 VHH, IL-15, or anti-B7-H3 scFv components were incubated with PBMCs and OVCAR8 cells and activity was determined. […] NK cell activity, from normal donor PBMCs and ascites from the peritoneal cavity of ovarian cancer patients at the time of surgery, was assessed against MA-148 cells, another high-grade serous ovarian adenocarcinoma cell line (FIGS. 29A-29B and 30G-30H). […]

[2] = system: NK cells (CD56+CD3−); test: NK cell proliferation in PBMCs, CellTrace Violet dilution
Method: FIGS. 2A-2H illustrates that cam1615B7-H3 TriKE induces potent, and specific, natural killer (NK) cell proliferation. Peripheral blood mononuclear cells (PBMCs) were CellTrace Violet labeled and incubated for seven days at 5 nM equimolar concentrations of rhIL-15 or cam1615B7-H3 TriKE. On day 7, the cells were harvested and stained for flow cytometric evaluation. […] FIG. 2B is a graph illustrating pooled data showing the overall proportion of NK cells that proliferated. FIG. 2C is a graph illustrating pooled data showing the proportion of NK cells that highly proliferated (measured as proliferation beyond three divisions). FIG. 2D is a graph illustrating pooled data showing NK cell counts in the cultures (N=9). FIG. 2E is a representative histogram showing T cell (CD56− CD3+) proliferation. FIG. 2F is a graph illustrating pooled data showing the overall proportion of T cells proliferated. FIG. 2G is a graph illustrating pooled data showing the proportion of T cells highly proliferated. […]
The wild-type IL-15 moiety in the cam1615B7-H3 TriKE was designed to induce targeted delivery of a proliferative signal to NK cells. […] At the end of the seven days, cells were harvested and proliferation was evaluated by gating on CD56+CD3− cells. […] Since IL-15 acts on both NK cells and T cells, specificity was evaluated next by gating on T cells (CD56-CD3+). […]

[3] = system: PC-3 cells; test: PC3 standard IncuCyte real-time killing assay; conditions: IncuCyte platform
Method: FIG. 16 is a graph illustrating a PC3 standard IncuCyte Assay.
Tumor killing was evaluated in real-time using the IncuCyte platform. […] Caspase-3/7 green dye (Sartorious, Ann Arbor, MI, USA) was added to pick up dying cells that have not yet lost NuclightRed fluorescence. Noted treatments were then added at a 30 nM concentration, and the plate was placed in an IncuCyte ZOOM® platform housed inside a cell incubator at 37° C./5% C02. Images from three technical replicates were taken every 15 min for 48 h using a 4× objective lens and then analyzed using IncuCyte™ Basic Software v2018A (Sartorious). Graphed readouts represent percentage live OVCAR8 targets (NuclightRed+Caspase-3/7−), normalized to live targets alone at the starting (0 h) time point.

Substance	background NK cell IFNγ [1]	background NK cell degranulation (CD107a) [1]	overall NK cell proliferation ([2]; PBMCs, 7 days, 5 nM equimolar)	NK cell proliferation (3 or more rounds of division) vs IL-15 alone ([2]; compared to IL-15 alone)	real-time tumor killing of PC-3 cells [3]
cam1615B7-H3: second-generation TriKE: humanized camelid anti-CD16 VHH, human wild-type IL-15, anti-B7-H3 mAb 376.96 scFv; SEQ ID NO:1	No background noise	some background degranulation (CD107a) on NK cells in comparison to controls, but this activity was low	overall increase in proliferation that was similar in amplitude to that induced by rhIL-15	more potent at inducing NK cell proliferation	–
B7-H3 TriKE: camelid nanobodies targeting CD16 and B7-H3 joined by IL-15 and two linkers; sequence table equates the name with cam1615B7-H3	–	–	–	–	enhanced efficacy
